Reference: article PMC7576608, “Mechanisms of telomerase inhibition by oxidized and therapeutic dNTPs” (Nature Communications, 2020)
“And” between values parts separate entries of the source, which are not always exact repeats. Identical values can stand only once.

Molecular target: telomerase (Homo sapiens, UniProt O14746)
Test: Direct telomerase repeat addition assay with radiolabeled dNTPs: dNTP titration, repeat processivity R1/2
Type: biochemical
Parameters: made in house; anti-FLAG immunopurification, eluted with 3xFLAG peptide
Details: for Processivity R 1/2: (TTAGGG)3 primer, remaining three natural dNTPs at cellular concentration
Procedure: This preparation, termed super telomerase, has kinetic properties similar to endogenous telomerase (Supplementary Fig. 1)[29]–[31]. […] Repeat processivity was measured using the convention of calculating the number of repeats synthesized before half of the DNA substrates dissociate from telomerase[33] (Supplementary Fig. 2). 8-oxo-dGTP served as a control since it is an established telomerase chain terminator[12].
Fig. 2 Oxidized and therapeutic dNTPs inhibit telomerase processivity. […] The loading control (*) was a ^32P-end labeled 18-mer oligonucleotide. Numbers on the left indicate the number of added repeats; letters on the right indicate template residue. Images are representative of three independent experiments.
The telomerase assay was as described. […] Reactions containing the modified dNTPs (Trilink Biotechnologies) substituted for their natural dNTP analog are indicated in the figure legends. The reactions were started by the addition of 3 μl (~35 fmol) of immunopurified telomerase eluent, incubated at 37 °C for 1 h, then terminated with 2 μl of […] EDTA and heat inactivated at 65 °C for 20 min. ^32P-end labeled 18-mer loading control (8 fmol) was added to the terminated reactions before purification with an Illustra Microspin G-25 column (GE Healthcare). An equal volume of loading buffer (94% formamide, 0.1× TBE, 0.1% bromophenol blue, 0.1% xylene cyanol) was added to the reaction eluent from the G-25 spin column. The samples were heat denatured for 10 min at 100 °C and loaded onto a 14% denaturing polyacrylamide gel (7 M urea, 1× TBE) and electrophoresed for 90 min at constant 38 W. Samples were imaged using a Typhoon phosphorimager (GE Healthcare).
The processivity was calculated as described[40],[67]. Repeat processivity from the direct telomerase extension assays was calculated as R1/2 (equivalent to the half-time for decay in an exponential time course), which represents the median length of DNA product formed, expressed in terms of number of telomere repeats. First, the total volume counts for each product band extend by one or more telomere repeats were obtained using Image Quant TL. The volume counts were then normalized by dividing by the number of radiolabeled guanosines incorporated into the extended products based on the number of repeats added, termed corrected volume (corr vol). The “percent left behind” (%LB) was calculated for each product band by summing the counts for that product band and for every product band below (shorter products), divided by the total counts for the lane, and then multiplied by 100. The natural log of (100−%LB) was calculated and then plotted vs. repeat number for each product length. A linear regression line was fit to the data to determine the slope of the line. The R1/2 value was calculated by dividing −ln(2) by the slope of each fitted line (R1/2 = −ln(2)/slope).
Number of Repeats Number of Repeats Number of Repeats Number of Repeats
Supplementary Fig 2.Telomerase dNTP titrations and processivity calculations. Telomerase reactions were conducted with (TTAGGG) 3 primer 1 and cellular-concentration dNTPs except that the […]
The loading control (LC) was a 32P-end labeled 18-mer. Numbers on the left indicate the number of added repeats. (d) Processivity was calculated as R1/2 (see Methods). (e) The natural log of (100-%LB) was plotted vs repeat number. A straight line was fit to the data and the R1/2 was calculated by dividing –ln(2) by the slope of each line. Plots shown from one experiment. Images ( a-c) and plots ( e) are representative of, and data are mean + s. d. (d) from, three independent experiments. Source data are provided as a Source Data file.
(1 picture or pasted object on this page, not shown here)

[1] = indicated dNTP at 0.5 μM, n1-n3
[2] = 5μM titrated dNTP, telomere repeat 1
[3] = 25μM titrated dNTP, telomere repeat 1

telomerase, sequence (O14746 whole entry): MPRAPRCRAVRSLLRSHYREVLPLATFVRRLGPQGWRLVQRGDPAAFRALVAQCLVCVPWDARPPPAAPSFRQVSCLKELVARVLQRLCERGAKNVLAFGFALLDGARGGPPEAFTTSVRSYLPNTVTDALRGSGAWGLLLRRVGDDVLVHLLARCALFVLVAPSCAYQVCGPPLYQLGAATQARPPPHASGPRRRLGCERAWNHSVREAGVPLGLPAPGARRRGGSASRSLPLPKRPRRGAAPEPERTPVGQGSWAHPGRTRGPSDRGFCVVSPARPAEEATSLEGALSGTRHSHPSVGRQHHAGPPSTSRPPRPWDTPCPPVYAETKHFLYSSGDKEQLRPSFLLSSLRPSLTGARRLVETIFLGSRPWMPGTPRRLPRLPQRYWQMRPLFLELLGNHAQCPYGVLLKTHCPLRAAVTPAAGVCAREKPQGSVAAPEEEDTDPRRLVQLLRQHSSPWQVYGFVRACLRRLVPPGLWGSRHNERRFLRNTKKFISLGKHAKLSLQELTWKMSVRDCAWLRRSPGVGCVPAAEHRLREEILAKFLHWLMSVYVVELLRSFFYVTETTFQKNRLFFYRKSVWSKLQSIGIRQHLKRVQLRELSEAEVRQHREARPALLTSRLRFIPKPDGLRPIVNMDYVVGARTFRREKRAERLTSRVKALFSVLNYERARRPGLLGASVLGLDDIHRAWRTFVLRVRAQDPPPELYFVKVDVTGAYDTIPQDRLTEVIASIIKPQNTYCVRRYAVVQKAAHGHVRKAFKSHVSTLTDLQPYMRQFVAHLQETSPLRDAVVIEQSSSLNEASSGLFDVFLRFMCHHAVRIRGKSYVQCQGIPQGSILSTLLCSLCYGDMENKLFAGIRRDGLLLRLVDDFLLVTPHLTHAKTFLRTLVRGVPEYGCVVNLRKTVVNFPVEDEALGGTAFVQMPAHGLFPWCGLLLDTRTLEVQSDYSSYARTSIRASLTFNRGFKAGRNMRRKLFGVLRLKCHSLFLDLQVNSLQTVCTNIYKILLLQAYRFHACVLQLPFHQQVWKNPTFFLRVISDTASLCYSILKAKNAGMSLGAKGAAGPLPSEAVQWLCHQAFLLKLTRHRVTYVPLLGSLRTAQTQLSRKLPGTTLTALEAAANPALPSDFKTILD

Structure (SMILES): Nc1nc(O)nc2c1ncn2C1CC(O)C(COP(=O)(O)OP(=O)(O)OP(=O)(O)O)O1 (stereo not shown) [2-OH-dATP]
- YIntercept (best-fit line of ln(100-%LB) vs repeat number) (2-OH-dATP 0.5μM, single experiments): 2.12 and 4.01 and 2.03
- YIntercept (best-fit line of ln(100-%LB) vs repeat number) (2-OH-dATP 1μM, single experiments): 2.17 and 3.36 and 2.82
- ln(100-%LB) (2-OH-dATP 5μM, 1 telomere repeat, single experiments): 1.89 and 1.96 and 2.94
- YIntercept (best-fit line of ln(100-%LB) vs repeat number) (2-OH-dATP 5μM, single experiments): 3.87 and 3.78 and 4.14
- ln(100-%LB) (2-OH-dATP 25μM, 1 telomere repeat, single experiments): 2.24 and 2.45
- ln(100-%LB) (2-OH-dATP 25μM, 2 telomere repeats, single experiments): 0.15 and 0.23
- YIntercept (best-fit line of ln(100-%LB) vs repeat number) (2-OH-dATP 25μM, single experiments): 3.63 and 4.14
- Processivity R 1/2 (indicated dNTP at 0.5 μM, Mean): 0.46
- Processivity R 1/2 [1]: 0.46 and 0.39 and 0.53
- Processivity R 1/2 (indicated dNTP at 1 μM, Mean): 0.43
- Processivity R 1/2 (indicated dNTP at 1 μM, n1-n3): 0.30 and 0.39 and 0.59
- Processivity R 1/2 (indicated dNTP at 5 μM, Mean): 0.57
- Processivity R 1/2 (indicated dNTP at 5 μM, n1-n3): 0.42 and 0.69 and 0.61
- Processivity R 1/2 (indicated dNTP at 24 μM, Mean): 0.66
- Processivity R 1/2 (indicated dNTP at 24 μM, n1-n3): 0.46 and 0.70 and 0.83

Structure (SMILES): Nc1nc2c(ncn2C2CC(O)C(COP(=O)(O)OP(=O)(O)OP(=O)(O)O)O2)c(=S)[nH]1 (stereo not shown) [6-thio-dGTP]
- Processivity R 1/2 (indicated dNTP at 0.5 μM, Mean): 0
- Processivity R 1/2 [1]: 0
- Processivity R 1/2 (indicated dNTP at 1 μM, Mean): 0
- Processivity R 1/2 (indicated dNTP at 1 μM, n1-n3): 0
- Processivity R 1/2 (indicated dNTP at 5 μM, Mean): 0
- Processivity R 1/2 (indicated dNTP at 5 μM, n1-n3): 0
- Processivity R 1/2 (indicated dNTP at 24 μM, Mean): 0
- Processivity R 1/2 (indicated dNTP at 24 μM, n1-n3): 0

Structure (SMILES): Nc1ncnc2c1[nH]c(=O)n2C1CC(O)C(COP(=O)(O)OP(=O)(O)OP(=O)(O)O)O1 (stereo not shown) [8-oxo-dATP]
- Processivity R 1/2 (indicated dNTP at 0.5 μM, Mean): 0
- Processivity R 1/2 [1]: 0
- Processivity R 1/2 (indicated dNTP at 1 μM, Mean): 0
- Processivity R 1/2 (indicated dNTP at 1 μM, n1-n3): 0
- Processivity R 1/2 (indicated dNTP at 5 μM, Mean): 0
- Processivity R 1/2 (indicated dNTP at 5 μM, n1-n3): 0
- Processivity R 1/2 (indicated dNTP at 24 μM, Mean): 0
- Processivity R 1/2 (indicated dNTP at 24 μM, n1-n3): 0

Structure (SMILES): Nc1nc2c([nH]c(=O)n2C2CC(O)C(COP(=O)(O)OP(=O)(O)OP(=O)(O)O)O2)c(=O)[nH]1 (stereo not shown) [8-oxo-dGTP]
- Processivity R 1/2 (indicated dNTP at 0.5 μM, Mean): 0
- Processivity R 1/2 [1]: 0
- Processivity R 1/2 (indicated dNTP at 1 μM, Mean): 0
- Processivity R 1/2 (indicated dNTP at 1 μM, n1-n3): 0
- Processivity R 1/2 (indicated dNTP at 5 μM, Mean): 0
- Processivity R 1/2 (indicated dNTP at 5 μM, n1-n3): 0
- Processivity R 1/2 (indicated dNTP at 24 μM, Mean): 0
- Processivity R 1/2 (indicated dNTP at 24 μM, n1-n3): 0

Structure (SMILES): Cc1cn([C@H]2C[C@H](N=[N+]=[N-])[C@@H](CO[P@](=O)(O)O[P@](=O)(O)OP(=O)(O)O)O2)c(=O)[nH]c1=O [AZT-TP]
- Processivity R 1/2 (indicated dNTP at 0.5 μM, Mean): 0
- Processivity R 1/2 [1]: 0
- Processivity R 1/2 (indicated dNTP at 1 μM, Mean): 0
- Processivity R 1/2 (indicated dNTP at 1 μM, n1-n3): 0
- Processivity R 1/2 (indicated dNTP at 5 μM, Mean): 0
- Processivity R 1/2 (indicated dNTP at 5 μM, n1-n3): 0
- Processivity R 1/2 (indicated dNTP at 24 μM, Mean): 0
- Processivity R 1/2 (indicated dNTP at 24 μM, n1-n3): 0

Structure (SMILES): Nc1ncnc2c1ncn2C1CC(O)C(COP(=O)(O)OP(=O)(O)OP(=O)(O)O)O1 (stereo not shown) [dATP]
- YIntercept (line, best-fit value) of ln(100-%LB) vs # telomere repeats (0.5μM titrated dNTP): 4.31 and 3.25 and 4.01
- YIntercept (line, best-fit value) of ln(100-%LB) vs # telomere repeats (1μM titrated dNTP): 4.44 and 2.47 and 4.49
- ln(100-%LB) (1μM titrated dNTP, telomere repeat 3): 2.47 and 1.35 and 2.09
- YIntercept (line, best-fit value) of ln(100-%LB) vs # telomere repeats (5μM titrated dNTP): 4.00 and 3.98 and 2.64
- ln(100-%LB) [2]: 3.97 and 2.20
- ln(100-%LB) (5μM titrated dNTP, telomere repeat 2): 3.54 and 1.95
- ln(100-%LB) (5μM titrated dNTP, telomere repeat 3): 3.04 and 3.01 and 1.68
- YIntercept (line, best-fit value) of ln(100-%LB) vs # telomere repeats (25μM titrated dNTP): 3.73 and 2.10
- ln(100-%LB) [3]: 3.90 and 2.05
- Processivity R 1/2 (indicated dNTP at 0.5 μM, Mean): 1.28
- Processivity R 1/2 [1]: 0.99 and 1.34 and 1.51
- Processivity R 1/2 (indicated dNTP at 1 μM, Mean): 1.47
- Processivity R 1/2 (indicated dNTP at 1 μM, n1-n3): 1.33 and 1.42 and 1.67
- Processivity R 1/2 (indicated dNTP at 5 μM, Mean): 2.10
- Processivity R 1/2 (indicated dNTP at 5 μM, n1-n3): 1.66 and 2.20 and 2.43
- Processivity R 1/2 (indicated dNTP at 24 μM, Mean): 2.21
- Processivity R 1/2 (indicated dNTP at 24 μM, n1-n3): 1.90 and 2.36 and 2.37

Structure (SMILES): Nc1nc2c(ncn2C2CC(O)C(COP(=O)(O)OP(=O)(O)OP(=O)(O)O)O2)c(=O)[nH]1 (stereo not shown) [dGTP]
- ln(100-%LB) (0.5μM titrated dNTP, telomere repeat 8): -4.24
- ln(100-%LB) (0.5μM titrated dNTP, telomere repeat 9): -4.48
- ln(100-%LB) (0.5μM titrated dNTP, telomere repeat 10): -4.75
- ln(100-%LB) (0.5μM titrated dNTP, telomere repeat 11): -4.99
- Processivity R 1/2 (indicated dNTP at 0.5 μM, Mean): 1.69
- Processivity R 1/2 [1]: 1.96 and 1.27 and 1.84
- Processivity R 1/2 (indicated dNTP at 1 μM, Mean): 1.78
- Processivity R 1/2 (indicated dNTP at 1 μM, n1-n3): 1.97 and 1.53 and 1.85
- Processivity R 1/2 (indicated dNTP at 5 μM, Mean): 2.39
- Processivity R 1/2 (indicated dNTP at 24 μM, Mean): 5.11

Structure (SMILES): Cc1cn(C2CC(O)C(COP(=O)(O)OP(=O)(O)OP(=O)(O)O)O2)c(=O)[nH]c1=O (stereo not shown) [dTTP]
- YIntercept (line, best-fit value) of ln(100-%LB) vs # telomere repeats (0.5μM titrated dNTP): 4.06 and 3.53 and 2.25
- YIntercept (line, best-fit value) of ln(100-%LB) vs # telomere repeats (1μM titrated dNTP): 3.61 and 3.41 and 1.82
- ln(100-%LB) (1μM titrated dNTP, telomere repeat 1): 3.41 and 3.35 and 1.72
- ln(100-%LB) [2]: 1.67 and 3.31 and 3.28
- YIntercept (line, best-fit value) of ln(100-%LB) vs # telomere repeats (25μM titrated dNTP): 3.33 and 3.39 and 1.96
- ln(100-%LB) [3]: 3.18 and 3.21 and 2.13
- ln(100-%LB) (25μM titrated dNTP, telomere repeat 2): 2.32 and 2.36 and 1.43
- ln(100-%LB) (25μM titrated dNTP, telomere repeat 3): 1.64 and 1.63 and 0.90
- Processivity R 1/2 (indicated dNTP at 0.5 μM, Mean): 1.28
- Processivity R 1/2 [1]: 1.27 and 1.42 and 1.15
- Processivity R 1/2 (indicated dNTP at 1 μM, Mean): 1.90
- Processivity R 1/2 (indicated dNTP at 1 μM, n1-n3): 1.45 and 1.97 and 2.27
- Processivity R 1/2 (indicated dNTP at 5 μM, Mean): 2.06
- Processivity R 1/2 (indicated dNTP at 5 μM, n1-n3): 1.59 and 1.96 and 2.62
- Processivity R 1/2 (indicated dNTP at 24 μM, Mean): 1.95

Structure (SMILES): O=c1[nH]cnc2c1ncn2C1CCC(COP(=O)(O)OP(=O)(O)OP(=O)(O)O)O1 (stereo not shown) [ddITP]
- Processivity R 1/2 (indicated dNTP at 0.5 μM, Mean): 0
- Processivity R 1/2 [1]: 0
- Processivity R 1/2 (indicated dNTP at 1 μM, Mean): 0
- Processivity R 1/2 (indicated dNTP at 1 μM, n1-n3): 0
- Processivity R 1/2 (indicated dNTP at 5 μM, Mean): 0
- Processivity R 1/2 (indicated dNTP at 5 μM, n1-n3): 0
- Processivity R 1/2 (indicated dNTP at 24 μM, Mean): 0
- Processivity R 1/2 (indicated dNTP at 24 μM, n1-n3): 0
